Assay results as given in US4843087A (priority 1986, dated 1989).
Values after ≈ are worked out from the molar mass of the structure shown.

Tests used:
[1] = test system: human rhinovirus (HRV) serotypes; test: microbe, parasite or virus in culture; type: cell-based; details: for MIC50: read-out: Rhinovirus MIC50; for IC (MIC80 of serotype panel): read-out: Rhinovirus MIC80
Polio 2 = test: microbe, parasite or virus in culture; type: cell-based, poliovirus; details: Enterovirus C, HeLa, read-out: Polio 2 MIC

Row | SMILES | MIC50 [1] | IC (MIC80 of serotype panel) [1] | MIC (Polio 2)
1 | Cc1cc(CCCCCCOc2ccc(C3=NCCO3)cc2Cl)on1 [Example 16, 5-{-[26-Chloro-4-(4,5-dihydro-2-oxazolyl)phenoxy]hexyl}-3-methylisoxazole] | 0.08 µg/mL (≈ 0.22 µM) | 0.43 µg/mL | 0.13 µg/mL (≈ 0.358 µM)
2 | Cc1cc(CCCCCOc2ccc(C3=NCCO3)cc2F)on1 [Example 20, 5-{5-[4-(4,5-Dihydro-2-oxazolyl)-2-fluorophenoxy]pentyl}-3-methylisoxazole] | 0.38 µg/mL (≈ 1.14 µM) | 26.9 µg/mL | 0.1 µg/mL (≈ 0.301 µM)
3 | Cc1cc(CCCCOc2ccc(C3=NCCO3)cc2Cl)on1 [Example 24, 5-{4-[2-Chloro-4-(4,5-dihydro-2-oxazolyl)phenoxy]butyl}-3-methylisoxazole] | 0.087 µg/mL (≈ 0.26 µM) | 1.2 µg/mL | 1.7 µg/mL (≈ 5.08 µM)
4 | Cc1cc(CCCCCOc2ccc(C3=NC(C)CO3)cc2Cl)on1 (stereo not drawn) [Example 32, 5-{5-[2-Chloro-4-(4,5-dihydro-4-methyl-2-oxazolyl)phenoxy]pentyl}-3-methylisoxazole] | 0.09 µg/mL (≈ 0.248 µM) | 0.27 µg/mL | 1.3 µg/mL (≈ 3.58 µM)
5 | Cc1cc(CCCCCCCOc2ccc(C3=NC(CO)CO3)cc2)on1 (stereo not drawn) [Example 33, 5-{7-[4-(4,5-Dihydro-4-hydroxymethyl-2-oxazolyl)phenoxy]heptyl}-3-methylisoxazole] | 51 µg/mL (≈ 137 µM) | 99 µg/mL | 3 µg/mL (≈ 8.05 µM)
6 | Cc1noc(CCCCCCCOc2ccc(C3=NCCO3)cc2)c1CCl [Example 35, 4-Chloromethyl-5-{7-[4-(4,5-dihydro-2-oxazolyl)phenoxy]heptyl}-3-methylisoxazole] | 1.39 µg/mL (≈ 3.54 µM) | 1.8 µg/mL | 0.05 µg/mL (≈ 0.128 µM)
7 | COc1cc(C2=NCCO2)ccc1OCCCCCc1cc(C)no1 [Example 42, 5-{5-[4-(4,5-Dihydro-2oxazolyl)-2-methoxyphenoxy]pentyl}-3-methylisoxazole] | 0.35 µg/mL (≈ 1.02 µM) | 0.64 µg/mL | 0.12 µg/mL (≈ 0.348 µM)
8 | Cc1noc(CCCCCCCOc2ccc(C3=NCCO3)cc2Cl)c1CO [Example 43] | 0.31 µg/mL (≈ 0.762 µM) | 1 µg/mL | 0.3 µg/mL (≈ 0.737 µM)
9 | Cc1cc(CCCCCOc2ccc(C3=NCCO3)cc2Br)on1 [Example 44, 5-{5-[2-Bromo-4-(4,5-dihydro-2-oxazolyl)phenoxy]pentyl}-3-methylisoxazole] | 0.08 µg/mL (≈ 0.203 µM) | 0.54 µg/mL | 0.3 µg/mL (≈ 0.763 µM)
10 | Cc1cc(CCCCCCCOc2ccc(C3=NCCO3)cc2Br)on1 [Example 45, 5-{7-[2-Bromo-4(4,5-dihydro-2-oxazolyl)phenoxy]heptyl}-3-methylisoxazole] | 0.16 µg/mL (≈ 0.38 µM) | 0.7 µg/mL | 0.5 µg/mL (≈ 1.19 µM)
11 | Cc1cc(CCCCCOc2ccc(C3=NCCO3)cc2C)on1 [Example 46, 5-{5-[4-(4,5-Dihydro-2-oxazolyl)-2-methylphenoxy]pentyl}-3-methylisoxazole] | 0.09 µg/mL (≈ 0.274 µM) | 0.2 µg/mL | 0.1 µg/mL (≈ 0.304 µM)
12 | Cc1cc(CCCCCOc2ccc(C3=NCCO3)c(Cl)c2)on1 [Example 47, 5-{5-[3-Chloro-4-(4,5-dihydro-2-oxazolyl)phenoxy]pentyl}-3-methylisoxazole] | 0.36 µg/mL (≈ 1.03 µM) | 2.4 µg/mL | 0.02 µg/mL (≈ 0.0573 µM)
13 | Cc1cc(CCCCCCOc2ccc(C3=NC(C)CO3)cc2Cl)on1 (stereo not drawn) [Example 48, 5-{6-[2-Chloro-(4,5-dihydro-4-methyl-2-oxazolyl)phenoxy]hexyl}-3-methylisoxazole] | 0.13 µg/mL (≈ 0.345 µM) | 0.37 µg/mL | 2.3 µg/mL (≈ 6.1 µM)
14 | Cc1cc(CCCCCOc2ccc(C3=NCCO3)cc2N)on1 [Example 49, 5-{5-[2-Amino-4-(4,5-dihydro-2-oxazoyl)phenoxy]pentyl}-3-methylisoxazole] | 1.1 µg/mL (≈ 3.34 µM) | 4.6 µg/mL | 2 µg/mL (≈ 6.07 µM)
15 | Cc1cc(CCCCCCCOc2ccc(C3=NCCO3)c(Cl)c2)on1 [Example 50, 5-{7-[3-Chloro-4(4,5-dihydro-2-oxazolyl)phenoxy]heptyl}-3-methylisoxazole] | 5.05 µg/mL (≈ 13.4 µM) | 99 µg/mL | 0.7 µg/mL (≈ 1.86 µM)
16 | Cc1cc(CCCCCOc2ccc(C3=NCCO3)c(C)c2)on1 [Example 51, 5-{5-[4-(4,5-Dihydro-2oxazolyl)-3-methylphenoxy]pentyl}-3-methylisoxazole] | 0.56 µg/mL (≈ 1.71 µM) | 1.6 µg/mL | 0.045 µg/mL (≈ 0.137 µM)
17 | Cc1cc(CCCCCOc2ccc(C3=NCCO3)c(O)c2)on1 [Example 52, 5-{5-[4-(4,5-Dihydro-2-oxazolyl)-3-hydroxyphenoxy]pentyl}-3-methylisoxazole] | 0.084 µg/mL (≈ 0.254 µM) | 1.9 µg/mL | 0.003 µg/mL (≈ 0.00908 µM)
18 | Cc1cc(CCCCCOc2ccc(C3=NCCO3)cc2[N+](=O)[O-])on1 [Example 53, 5-{5-[4-(4,5-Dihydro-2-oxazolyl)-2-nitrophenoxy]pentyl}-3-methylisoxazole] | 0.087 µg/mL (≈ 0.242 µM) | 0.64 µg/mL | 0.08 µg/mL (≈ 0.223 µM)

Row | SMILES | MIC50 [1] | IC (MIC80 of serotype panel) [1] | MIC (Polio 2)
19 | Cc1cc(CCCCCOc2ccc(C3=NCCO3)cc2C(F)(F)F)on1 [Example 54, 5-{5-[4-(4,5-Dihydro-2-oxazolyl)-2-trifluoromethylphenoxy]pentyl}-3-methylisoxazole] | 0.08 µg/mL (≈ 0.209 µM) | 0.42 µg/mL | 1.3 µg/mL (≈ 3.4 µM)
20 | Cc1cc(CCCCCOc2ccc(C3=NC(C)CO3)cc2)on1 (stereo not drawn) [Example 56, 5-{5-[4-(4,5-Dihydro-4-methyl-2-oxazolyl)phenoxy]pentyl}-3-methylisoxazole] | 0.164 µg/mL (≈ 0.499 µM) | 25.3 µg/mL | 0.07 µg/mL (≈ 0.213 µM)
21 | Cc1cc(CCCCCCCOc2ccc(C3=NCCO3)c(O)c2)on1 [Example 59, 5-{7-[4-(4,5-Dihydro-2-oxazolyl)-3-hydroxyphenoxy]heptyl}-3-methylisoxazole] | 0.435 µg/mL (≈ 1.21 µM) | 25.2 µg/mL | 0.04 µg/mL (≈ 0.112 µM)
22 | CCc1cc(C2=NCCO2)ccc1OCCCCCc1cc(C)no1 [Example 60, 5-{5-[4-(4,5-Dihydro-2-oxazolyl)-2-ethylphenoxy]pentyl}-3-methylisoxazole] | 0.1 µg/mL (≈ 0.292 µM) | 0.7 µg/mL | 0.24 µg/mL (≈ 0.701 µM)
23 | C=CCc1cc(C2=NCCO2)ccc1OCCCCCc1cc(C)no1 [Example 61, 5-{5-[4-(4,5-Dihydro-2-oxazolyl)-2-(2-propenyl)phenoxy]pentyl}-3-methylisoxazole] | 0.39 µg/mL (≈ 1.1 µM) | 0.75 µg/mL | 0.54 µg/mL (≈ 1.52 µM)
24 | Cc1cc(CCCCCOc2ccc(C3=NC(C)(C)CO3)cc2)on1 [Example 62, 5-{5-[4-(4,5-Dihydro-4,4-dimethyl-2-oxazolyl)phenoxy]pentyl}-3-methylisoxazole] | 1.5 µg/mL (≈ 4.38 µM) | 2.4 µg/mL | 0.51 µg/mL (≈ 1.49 µM)
25 | CC(=O)c1cc(C2=NCCO2)ccc1OCCCCCc1cc(C)no1 [Example 63, 5-{5-[4-(4,5-Dihydro-2-oxazolyl)-2-acetylphenoxy]pentyl}-3-methylisoxazole] | 0.55 µg/mL (≈ 1.54 µM) | 1.05 µg/mL | 2.3 µg/mL (≈ 6.45 µM)
26 | Cc1cc(CCCCOc2ccc(C3=NC(C)CO3)cc2)on1 (stereo not drawn) [Example 64, 5-{4-[4-(4,5-Dihydro-4-methyl-2-oxazoly)phenoxy]butyl}-3-methylisoxazole] | 0.485 µg/mL (≈ 1.54 µM) | 25.6 µg/mL | 2.4 µg/mL (≈ 7.63 µM)
27 | Cc1cc(CCC=CCOc2ccc(C3=NCCO3)cc2Cl)on1 [Example 68, 5-{5-[2-Chloro-4-(4,5-dihydro-2-oxazolyl)phenoxy]-3-pentenyl}-3-methylisoxazole] | 0.4 µg/mL (≈ 1.15 µM) | 1 µg/mL | 0.23 µg/mL (≈ 0.663 µM)
28 | Cc1cc(CCCCCOc2ccc(C3=NCCO3)cc2C=O)on1 [Example 70, 5-{5-[4-(4,5-Dihydro-2-oxazolyl)-2-formylphenoxy]pentyl}-3-methylisoxazole] | 0.85 µg/mL (≈ 2.48 µM) | 1.6 µg/mL | 0.1 µg/mL (≈ 0.292 µM)
29 | Cc1cc(CCCCCOc2c(Br)cc(C3=NCCO3)cc2Br)on1 [Example 74, 5-{5-[2,6-Dibromo-4-(4,5-dihydro-2-oxazolyl)phenoxy]pentyl}-3-methylisoxazole] | 0.13 µg/mL (≈ 0.275 µM) | 0.59 µg/mL | 2 µg/mL (≈ 4.24 µM)
30 | Cc1cc(CCCCCOc2ccc(C3=NCC(CO)O3)cc2)on1 (stereo not drawn) [Example 75, 5-{5-[4-(4,5-Dihydro-5-hydroxymethyl-2-oxazolyl)phenoxyl]pentyl}-3-methylisoxazole] | 9.95 µg/mL (≈ 28.9 µM) | 35.2 µg/mL | 0.69 µg/mL (≈ 2 µM)
31 | Cc1cc(CCCCCOc2ccc(C3=NC(C)CO3)c(Cl)c2)on1 (stereo not drawn) [Example 77, 5-{5-[3-Chloro-4-(4,5-dihydro-4-methyl-2-oxazolyl)phenoxy]pentyl}-3-methylisoxazole] | 0.088 µg/mL (≈ 0.243 µM) | 1.47 µg/mL | 0.05 µg/mL (≈ 0.138 µM)
32 | Cc1cc(CCCCCOc2ccc(C3=NCCO3)c(C)c2C)on1 [Example 79, 5-{5-[4-(4,5-Dihydro-2-oxazolyl)-2,3-dimethylphenoxy]pentyl}-3-methylisoxazole] | 0.3 µg/mL (≈ 0.876 µM) | 0.7 µg/mL | 2.3 µg/mL (≈ 6.72 µM)
33 | Cc1cc(CCCCCOc2ccc(C3=NCCO3)c(O)c2C)on1 [Example 80, 5-{5-[4-(4,5-Dihydro-2-oxazolyl)-3-hydroxy-2-methylphenoxy]pentyl}-3-methylisoxazole] | 0.13 µg/mL (≈ 0.377 µM) | 0.27 µg/mL | 0.11 µg/mL (≈ 0.319 µM)
34 | Cc1cc(CCCOCOCCOc2ccc(C3=NCCO3)cc2Cl)on1 [Example 82, 5-{3-[[2-[2-Chloro-4-(4,5-dihydro-2-oxazolyl)phenoxy]ethoxy]methoxy]propyl}-3-methylisoxazole] | 1.2 µg/mL (≈ 3.04 µM) | 5.4 µg/mL | 2.9 µg/mL (≈ 7.34 µM)
35 | Cc1cc(CCCOCOCCOc2ccc(C3=NCCO3)cc2C)on1 [Example 83, 5-{3-[[2-[4-(4,5-Dihydro-2-oxazolyl)-2-methylphenoxy]ethoxy]methoxy]propyl}-3-methylisoxazole] | 3.75 µg/mL (≈ 10 µM) | 99 µg/mL | 5 µg/mL (≈ 13.4 µM)
36 | Cc1cc(CCCCCOc2ccc(C3=NCCO3)cc2C(F)F)on1 [Example 84, 5-{5-[2-Difluoromethyl-4-(4,5-dihydro-2-oxazolyl)phenoxy]pentyl}-3-methylisoxazole] | 0.082 µg/mL (≈ 0.225 µM) | 0.72 µg/mL | 0.11 µg/mL (≈ 0.302 µM)
